Measurements as given in PubChem BioAssay (NCI).
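Results reflect a 48-hour exposure of cells in 96-well plates to compound at five concentrations. GI50 is the concentration that inhibits growth by half. TGI: total growth inhibition.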

How the values were obtained:
Assay in all cases: NCI anticancer screen, dose series, 48 h; in the data active = GI50 below about 0.43 µM; inactive = the rest
HT29 colon = system: HT29 colon
SNB-19 CNS = system: SNB-19 CNS
HCT-116 colon = system: HCT-116 colon
NCI-H460 lung = system: NCI-H460 lung
RXF 393 renal = system: RXF 393 renal
UACC-62 melanoma = system: UACC-62 melanoma
KM12 colon = system: KM12 colon
MDA-MB-231 breast = system: MDA-MB-231 breast
SF-268 CNS = system: SF-268 CNS
CAKI-1 renal = system: CAKI-1 renal
SF-295 CNS = system: SF-295 CNS
OVCAR-4 ovarian = system: OVCAR-4 ovarian
SK-MEL-5 melanoma = system: SK-MEL-5 melanoma
OVCAR-8 ovarian = system: OVCAR-8 ovarian
HCT-15 colon = system: HCT-15 colon
K-562 leukemia = system: K-562 leukemia
SR leukemia = system: SR leukemia
SK-OV-3 ovarian = system: SK-OV-3 ovarian
MALME-3M melanoma = system: MALME-3M melanoma
UACC-257 melanoma = system: UACC-257 melanoma
UO-31 renal = system: UO-31 renal
ACHN renal = system: ACHN renal
OVCAR-5 ovarian = system: OVCAR-5 ovarian
IGROV1 ovarian = system: IGROV1 ovarian
M14 melanoma = system: M14 melanoma
SK-MEL-2 melanoma = system: SK-MEL-2 melanoma
A549 NSCLC = system: A549 NSCLC
SW-620 colon = system: SW-620 colon
DU-145 prostate = system: DU-145 prostate
LOX IMVI melanoma = system: LOX IMVI melanoma
COLO 205 colon = system: COLO 205 colon
NCI-H23 lung = system: NCI-H23 lung
SK-MEL-28 melanoma = system: SK-MEL-28 melanoma
HL-60(TB) leukemia = system: HL-60(TB) leukemia
MOLT-4 leukemia = system: MOLT-4 leukemia
NCI-H226 lung = system: NCI-H226 lung
TK-10 renal = system: TK-10 renal
EKVX NSCLC = system: EKVX NSCLC
T-47D breast = system: T-47D breast
SF-539 CNS = system: SF-539 CNS
A498 renal = system: A498 renal
NCI-H522 lung = system: NCI-H522 lung
MDA-MB-435 = system: MDA-MB-435
786-0 renal = system: 786-0 renal
PC-3 prostate = system: PC-3 prostate
NCI/ADR-RES ovarian = system: NCI/ADR-RES ovarian
HOP-92 NSCLC = system: HOP-92 NSCLC
RPMI-8226 leukemia = system: RPMI-8226 leukemia
OVCAR-3 ovarian = system: OVCAR-3 ovarian
CCRF-CEM leukemia = system: CCRF-CEM leukemia
HCC-2998 colon = system: HCC-2998 colon
U251 CNS = system: U251 CNS
HOP-62 NSCLC = system: HOP-62 NSCLC
HS 578T breast = system: HS 578T breast
SN12C renal = system: SN12C renal
MCF7 breast = system: MCF7 breast
BT-549 breast = system: BT-549 breast

COc1ccc2c(c1)C(=Nc1ccc(F)c(Cl)c1)c1c-2c(Nc2ccc(F)c(Cl)c2)nc2ccccc12
42.8 µM: TGI (786-0 renal)
> 70.5 µM: TGI (UACC-62 melanoma)
> 70.8 µM: TGI (ACHN renal)
> 77.6 µM: TGI (NCI-H226 lung)
98.6 µM: TGI (SK-OV-3 ovarian)
33.1 µM: TGI (HL-60(TB) leukemia)
> 58.5 µM: TGI (OVCAR-8 ovarian)
> 61.3 µM: TGI (MDA-MB-231 breast)
> 100 µM: TGI (HT29 colon) | TGI (SNB-19 CNS) | TGI (HCT-116 colon) | TGI (NCI-H460 lung) | TGI (KM12 colon) | TGI (SF-268 CNS) | TGI (CAKI-1 renal) | TGI (SF-295 CNS) | TGI (SK-MEL-5 melanoma) | TGI (HCT-15 colon) | TGI (MALME-3M melanoma) | TGI (UACC-257 melanoma) | TGI (UO-31 renal) | TGI (OVCAR-5 ovarian) | TGI (IGROV1 ovarian) | TGI (M14 melanoma) | TGI (A549 NSCLC) | TGI (SW-620 colon) | TGI (DU-145 prostate) | TGI (LOX IMVI melanoma) | TGI (COLO 205 colon) | TGI (SK-MEL-28 melanoma) | TGI (EKVX NSCLC) | TGI (T-47D breast) | TGI (NCI-H522 lung) | TGI (MDA-MB-435) | TGI (PC-3 prostate) | TGI (HOP-92 NSCLC) | TGI (RPMI-8226 leukemia) | TGI (OVCAR-3 ovarian) | TGI (HCC-2998 colon) | TGI (MCF7 breast)
> 80 µM: TGI (TK-10 renal)
86.8 µM: TGI (A498 renal)
> 74.9 µM: TGI (SF-539 CNS)
> 67 µM: TGI (SN12C renal)
98.5 µM: TGI (HS 578T breast)
0.0862 µM: TGI (SR leukemia)
> 72.9 µM: TGI (NCI/ADR-RES ovarian)
> 74.4 µM: TGI (BT-549 breast)
inactive: GI50 (HT29 colon) > 100 µM | GI50 (SNB-19 CNS) 44.8 µM | GI50 (HCT-116 colon) 27.8 µM | GI50 (NCI-H460 lung) > 100 µM | GI50 (RXF 393 renal) 0.579 µM | GI50 (UACC-62 melanoma) 22.3 µM | GI50 (KM12 colon) > 100 µM | GI50 (MDA-MB-231 breast) 23 µM | GI50 (SF-268 CNS) 29.7 µM | GI50 (CAKI-1 renal) > 65.8 µM | GI50 (SF-295 CNS) 33 µM | GI50 (OVCAR-4 ovarian) 24.8 µM | GI50 (SK-MEL-5 melanoma) > 100 µM | GI50 (OVCAR-8 ovarian) 22.6 µM | GI50 (HCT-15 colon) > 71.3 µM | GI50 (K-562 leukemia) 4.19 µM | GI50 (SK-OV-3 ovarian) 18.8 µM | GI50 (MALME-3M melanoma) > 100 µM | GI50 (UACC-257 melanoma) > 60.6 µM | GI50 (UO-31 renal) > 100 µM | GI50 (ACHN renal) 24.1 µM | GI50 (OVCAR-5 ovarian) > 76.6 µM | GI50 (IGROV1 ovarian) 30.1 µM | GI50 (M14 melanoma) 47.1 µM | GI50 (SK-MEL-2 melanoma) 23.6 µM | GI50 (A549 NSCLC) > 74 µM | GI50 (SW-620 colon) > 100 µM | GI50 (DU-145 prostate) > 100 µM | GI50 (LOX IMVI melanoma) 51.8 µM | GI50 (COLO 205 colon) > 100 µM | GI50 (NCI-H23 lung) 19.9 µM | GI50 (SK-MEL-28 melanoma) > 100 µM | GI50 (HL-60(TB) leukemia) 14.8 µM | GI50 (MOLT-4 leukemia) 21.2 µM | GI50 (NCI-H226 lung) 39 µM | GI50 (TK-10 renal) 34.5 µM | GI50 (EKVX NSCLC) 89.2 µM | GI50 (T-47D breast) > 100 µM | GI50 (SF-539 CNS) 27 µM | GI50 (A498 renal) 28.1 µM | GI50 (NCI-H522 lung) 44.3 µM | GI50 (MDA-MB-435) > 100 µM | GI50 (786-0 renal) 14.9 µM | GI50 (PC-3 prostate) > 94.6 µM | GI50 (NCI/ADR-RES ovarian) 29.6 µM | GI50 (HOP-92 NSCLC) 33.8 µM | GI50 (RPMI-8226 leukemia) > 60.4 µM | GI50 (OVCAR-3 ovarian) 42.7 µM | GI50 (CCRF-CEM leukemia) 0.804 µM | GI50 (HCC-2998 colon) > 100 µM | GI50 (U251 CNS) 18.8 µM | GI50 (HOP-62 NSCLC) 13.7 µM | GI50 (HS 578T breast) 35.3 µM | GI50 (SN12C renal) 33.8 µM | GI50 (MCF7 breast) 56.2 µM | GI50 (BT-549 breast) 23.4 µM
> 71.8 µM: TGI (SK-MEL-2 melanoma)
active: GI50 (SR leukemia) 0.0122 µM
> 75.7 µM: TGI (OVCAR-4 ovarian)
3.99 µM: TGI (CCRF-CEM leukemia)
58 µM: TGI (NCI-H23 lung)
43.8 µM: TGI (U251 CNS)
37 µM: TGI (K-562 leukemia)
41.3 µM: TGI (MOLT-4 leukemia)
32.4 µM: TGI (HOP-62 NSCLC)
37.1 µM: TGI (RXF 393 renal)

COc1ccc(Cn2cc(COc3cc(/C=C/C(=O)c4cc(OC)c(OC)c(OC)c4)ccc3OC)nn2)cc1
29.6 µM: TGI (RPMI-8226 leukemia)
26.3 µM: TGI (TK-10 renal)
9.68 µM: TGI (HT29 colon)
42.1 µM: TGI (SK-MEL-2 melanoma)
9.18 µM: TGI (SK-OV-3 ovarian)
6.88 µM: TGI (RXF 393 renal)
7.97 µM: TGI (HOP-62 NSCLC)
> 100 µM: TGI (SNB-19 CNS) | TGI (HCT-116 colon) | TGI (UACC-62 melanoma) | TGI (KM12 colon) | TGI (MDA-MB-231 breast) | TGI (SF-268 CNS) | TGI (CAKI-1 renal) | TGI (OVCAR-4 ovarian) | TGI (OVCAR-8 ovarian) | TGI (HCT-15 colon) | TGI (K-562 leukemia) | TGI (SR leukemia) | TGI (MALME-3M melanoma) | TGI (UACC-257 melanoma) | TGI (UO-31 renal) | TGI (ACHN renal) | TGI (IGROV1 ovarian) | TGI (M14 melanoma) | TGI (SW-620 colon) | TGI (LOX IMVI melanoma) | TGI (COLO 205 colon) | TGI (NCI-H23 lung) | TGI (SK-MEL-28 melanoma) | TGI (MOLT-4 leukemia) | TGI (T-47D breast) | TGI (A498 renal) | TGI (MDA-MB-435) | TGI (786-0 renal) | TGI (PC-3 prostate) | TGI (NCI/ADR-RES ovarian) | TGI (CCRF-CEM leukemia) | TGI (HCC-2998 colon) | TGI (U251 CNS) | TGI (HS 578T breast) | TGI (SN12C renal) | TGI (MCF7 breast) | TGI (BT-549 breast)
47.5 µM: TGI (A549 NSCLC)
6.71 µM: TGI (OVCAR-3 ovarian)
40.4 µM: TGI (NCI-H460 lung)
20.5 µM: TGI (SK-MEL-5 melanoma)
inactive: GI50 (HT29 colon) 3.65 µM | GI50 (SNB-19 CNS) 5.99 µM | GI50 (HCT-116 colon) 3.36 µM | GI50 (NCI-H460 lung) 4.39 µM | GI50 (RXF 393 renal) 2.29 µM | GI50 (UACC-62 melanoma) 4.19 µM | GI50 (KM12 colon) 3.23 µM | GI50 (MDA-MB-231 breast) 4.62 µM | GI50 (SF-268 CNS) 3.75 µM | GI50 (CAKI-1 renal) 5.68 µM | GI50 (OVCAR-4 ovarian) 7.04 µM | GI50 (SK-MEL-5 melanoma) 3.66 µM | GI50 (OVCAR-8 ovarian) 3.06 µM | GI50 (HCT-15 colon) 2.76 µM | GI50 (K-562 leukemia) 3.13 µM | GI50 (SR leukemia) 2.7 µM | GI50 (SK-OV-3 ovarian) 3.02 µM | GI50 (MALME-3M melanoma) 25.7 µM | GI50 (UACC-257 melanoma) 10.3 µM | GI50 (UO-31 renal) 4.71 µM | GI50 (ACHN renal) 4.47 µM | GI50 (IGROV1 ovarian) 4.14 µM | GI50 (M14 melanoma) 5.6 µM | GI50 (SK-MEL-2 melanoma) 8.33 µM | GI50 (A549 NSCLC) 3.09 µM | GI50 (SW-620 colon) 3.63 µM | GI50 (DU-145 prostate) 2.41 µM | GI50 (LOX IMVI melanoma) 3.22 µM | GI50 (COLO 205 colon) 4.36 µM | GI50 (NCI-H23 lung) 31.3 µM | GI50 (SK-MEL-28 melanoma) 7.45 µM | GI50 (HL-60(TB) leukemia) 4.55 µM | GI50 (MOLT-4 leukemia) 4.67 µM | GI50 (NCI-H226 lung) 2.91 µM | GI50 (TK-10 renal) 3.7 µM | GI50 (T-47D breast) 3.41 µM | GI50 (SF-539 CNS) 3.02 µM | GI50 (A498 renal) 12.8 µM | GI50 (NCI-H522 lung) 1.69 µM | GI50 (MDA-MB-435) 2.86 µM | GI50 (786-0 renal) 5.01 µM | GI50 (PC-3 prostate) 3.63 µM | GI50 (NCI/ADR-RES ovarian) 3.49 µM | GI50 (RPMI-8226 leukemia) 2.58 µM | GI50 (OVCAR-3 ovarian) 2.62 µM | GI50 (CCRF-CEM leukemia) 3.14 µM | GI50 (HCC-2998 colon) 3.9 µM | GI50 (U251 CNS) 3.8 µM | GI50 (HOP-62 NSCLC) 2.72 µM | GI50 (HS 578T breast) 7.88 µM | GI50 (SN12C renal) 3.62 µM | GI50 (MCF7 breast) 3.15 µM | GI50 (BT-549 breast) 3.33 µM
35.1 µM: TGI (HL-60(TB) leukemia)
4.18 µM: TGI (NCI-H522 lung)
83.1 µM: TGI (NCI-H226 lung)
5.2 µM: TGI (DU-145 prostate)
12.9 µM: TGI (SF-539 CNS)
